Assay results taken from ChEMBL document CHEMBL5034015, “Structure-Based Optimization of 3-Phenyl-N-(2-(3-phenylureido)ethyl)thiophene-2-sulfonamide Derivatives as Selective Mcl-1 Inhibitors” (J Med Chem, 2021).
Calls of active or inactive are those of the source. Unless noted, the rule behind the calls is not given here.

Experiments:
RS4-11 [1] = assay: Cytotoxicity against human RS4-11 cells assessed as cell viability at 20 uM incubated for 48 hrs by CCK8 assay relative to control; format: functional; settings: read-out: Activity
HeLa [2] = assay: Cytotoxicity against human HeLa cells assessed as cell viability at 20 uM incubated for 48 hrs by CCK8 assay relative to control; format: functional; settings: read-out: Activity
[3] = molecular target: T1, Induced myeloid leukemia cell differentiation protein Mcl-1 (Homo sapiens, UniProt Q07820); assay: Binding affinity to full length human MCL1 expressed in Escherichia coli BL21 (DE3) at 100 uM preincubated for 30 mins followed by 5-FAM-QEDIIIINIARHLAQVGDSMD-RSIPPG tracer addition and measured after 20 mins by fluorescence polarization assay relative to control; settings: time 50.0 min
T1 sequence (Q07820 whole entry): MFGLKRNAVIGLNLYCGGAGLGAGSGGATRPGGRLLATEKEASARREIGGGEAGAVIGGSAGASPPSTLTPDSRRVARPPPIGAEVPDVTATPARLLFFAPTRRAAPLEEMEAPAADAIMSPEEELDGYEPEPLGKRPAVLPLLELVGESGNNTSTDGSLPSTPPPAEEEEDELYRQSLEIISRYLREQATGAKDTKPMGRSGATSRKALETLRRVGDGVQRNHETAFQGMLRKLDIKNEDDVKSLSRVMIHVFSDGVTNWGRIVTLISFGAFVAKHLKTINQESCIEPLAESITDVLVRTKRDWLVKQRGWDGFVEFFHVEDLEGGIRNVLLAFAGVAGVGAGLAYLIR

[4] = molecular target: T2, Apoptosis regulator Bcl-2 (Homo sapiens, UniProt P10415); assay: Binding affinity to full length human Bcl-2 expressed in Escherichia coli BL21 (DE3) at 100 uM preincubated for 30 mins followed by 5-FAM-QEDIIIINIARHLAQVGDSMD-RSIPPG tracer addition and measured after 20 mins by fluorescence polarization assay relative to control; settings: time 50.0 min
T2 sequence (P10415 whole entry): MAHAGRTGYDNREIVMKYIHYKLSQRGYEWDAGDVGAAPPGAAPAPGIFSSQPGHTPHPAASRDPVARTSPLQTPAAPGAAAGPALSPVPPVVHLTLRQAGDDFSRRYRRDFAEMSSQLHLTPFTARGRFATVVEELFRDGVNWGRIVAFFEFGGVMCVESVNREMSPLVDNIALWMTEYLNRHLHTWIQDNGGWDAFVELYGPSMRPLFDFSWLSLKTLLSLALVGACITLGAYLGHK

HL-60 [5] = assay: Cytotoxicity against human HL-60 cells assessed as cell viability at 20 uM incubated for 48 hrs by CCK8 assay relative to control; format: functional; settings: read-out: Activity
[6] = Cytotoxicity against HEK293T cells assessed as cell viability at 20 uM incubated for 48 hrs by CCK8 assay relative to control; format: cell-based, HEK-293T; settings: human, read-out: Activity
Bcl-2-like protein 1 [7] = molecular target: T3, Bcl-2-like protein 1 (Homo sapiens, UniProt Q07817); assay: Binding affinity to full length human Bcl-xl expressed in Escherichia coli BL21 (DE3) at 100 uM preincubated for 30 mins followed by 5-FAM-QEDIIIINIARHLAQVGDSMD-RSIPPG tracer addition and measured after 20 mins by fluorescence polarization assay relative to control; settings: time 50.0 min
T3 sequence (Q07817 whole entry): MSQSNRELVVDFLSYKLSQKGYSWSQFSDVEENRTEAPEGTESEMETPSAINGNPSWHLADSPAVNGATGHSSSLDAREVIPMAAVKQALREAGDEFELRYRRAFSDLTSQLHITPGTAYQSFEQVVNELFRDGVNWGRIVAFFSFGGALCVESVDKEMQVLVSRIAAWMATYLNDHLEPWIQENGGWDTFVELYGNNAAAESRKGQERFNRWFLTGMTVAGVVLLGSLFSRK

RS4-11 [8] = assay: Antitumor activity against human RS4-11 cells xenografted in SCID mouse assessed as reduction in Ki-67 positive cells administered intraperitoneally for 19 days by immunohistochemical analysis; format: functional, cell-based; settings: time 19.0 day
HEK-293T = assay: Cytotoxicity against HEK293T cells assessed as reduction in cell viability incubated for 48 hrs by CCK8 assay; settings: Homo sapiens
[9] = molecular target: Induced myeloid leukemia cell differentiation protein Mcl-1/Bcl-2-like protein 11 (Homo sapiens) (UniProt Q07820+O43521); assay: Inhibition of MCL1/Bim interaction in human MCF7 cells assessed as disruption of MCL1/Bim complex at 10 uM measured after 24 hrs by co-immunoprecipitation based western blot analysis relative to control; format: cell-based
Induced myeloid leukemia cell differentiation protein Mcl-1/Bcl-2-like protein 11 (Homo sapiens), sequence (O43521 whole entry, looked up): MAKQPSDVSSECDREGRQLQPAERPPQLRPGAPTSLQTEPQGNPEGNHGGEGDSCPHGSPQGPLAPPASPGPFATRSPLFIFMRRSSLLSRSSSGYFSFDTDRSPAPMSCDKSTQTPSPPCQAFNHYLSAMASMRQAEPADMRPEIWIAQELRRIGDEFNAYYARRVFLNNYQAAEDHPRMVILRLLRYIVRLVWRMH
Induced myeloid leukemia cell differentiation protein Mcl-1/Bcl-2-like protein 11 (Homo sapiens), sequence (Q07820 whole entry, looked up): as the sequence (Q07820 whole entry) above

RS4-11 [10] = assay: Antitumor activity against human RS4-11 cells xenografted in NOD/SCID mouse assessed as reduction in tumor volume at 50 mg/kg, ip administered every 2 days for 22 days and measured every 3 days relative to control; format: functional; parameters: scale not given: the % may be the effect or the level left; settings: time 22 day
RS4-11 [11] = assay: cells; settings: Homo sapiens, RS4-11, 48 h
Description: Cytotoxicity against human RS4-11 cells assessed as inhibition of cell growth incubated for 48 hrs by CCK8 assay

RS4-11 [12] = assay: Induction of apoptosis in human RS4-11 cells assessed as increase in cleaved caspase 9 expression incubated for 48 hrs by western blot analysis; format: functional, cell-based
RS4-11 [13] = assay: Induction of apoptosis in human RS4-11 cells assessed as early apoptotic cells at 20 uM measured after 24 hrs by Annexin V/7-AAD and MitoSense Red staining based flow cytometry analysis relative to control (reference value: 3.75 %); format: functional
HeLa [14] = assay: cells; settings: Homo sapiens, 48 h
Description: Cytotoxicity against human HeLa cells assessed as inhibition of cell growth incubated for 48 hrs by CCK8 assay

RS4-11 [15] = assay: Antitumor activity against human RS4-11 cells xenografted in NODSCID mouse assessed as inhibition of tumor growth at 12.5 mg/kg, ip administered every 2 days for 22 days and measured every 3 days relative to control; format: functional; parameters: scale not given: the % may be the effect or the level left; settings: time 22 day
[16] = Toxicity in NOD/SCID mouse xenografted with human RS4-11 cells assessed as reduction in body weight at 12.5 to 50 mg/kg, ip administered every 2 days for 22 days; format: organism-based; settings: in vivo, 528 h, dose 12.5-50 mg/kg, time 22 day
RS4-11 [17] = assay: Induction of apoptosis in human RS4-11 cells assessed as viable cells at 20 uM measured after 24 hrs by Annexin V/7-AAD and MitoSense Red staining based flow cytometry analysis relative to control (reference value: 94.15 %); format: functional; settings: read-out: Activity
Bcl-2-like protein 1 [18] = molecular target: T3, Bcl-2-like protein 1; assay: Binding affinity to full length human Bcl-xl expressed in Escherichia coli BL21 (DE3) at up to 100 uM preincubated for 30 mins followed by 5-FAM-QEDIIIINIARHLAQVGDSMD-RSIPPG tracer addition and measured after 20 mins by fluorescence polarization assay; settings: dose microM <=100, time 50.0 min
RS4-11 [19] = assay: Induction of apoptosis in human RS4-11 cells assessed as late apoptotic cells at 20 uM measured after 24 hrs by Annexin V/7-AAD and MitoSense Red staining based flow cytometry analysis relative to control (reference value: 0.99 %); format: functional
[20] = molecular target: T2, Apoptosis regulator Bcl-2; assay: Binding affinity to full length human Bcl-2 expressed in Escherichia coli BL21 (DE3) at up to 100 uM preincubated for 30 mins followed by 5-FAM-QEDIIIINIARHLAQVGDSMD-RSIPPG tracer addition and measured after 20 mins by fluorescence polarization assay; settings: dose microM <=100, time 50.0 min
RS4-11 [21] = assay: Antitumor activity against human RS4-11 cells xenografted in NOD/SCID mouse assessed as inhibition of tumor growth at 25 mg/kg, ip administered every 2 days for 22 days and measured every 3 days relative to control; format: functional; parameters: scale not given: the % may be the effect or the level left; settings: time 22 day
HL-60 [22] = assay: cells; settings: Homo sapiens, HL-60, 48 h
Description: Cytotoxicity against human HL-60 cells assessed as inhibition of cell growth incubated for 48 hrs by CCK8 assay

RS4-11 [23] = assay: Induction of apoptosis in human RS4-11 cells assessed as necrotic cells at 20 uM measured after 24 hrs by Annexin V/7-AAD and MitoSense Red staining based flow cytometry analysis relative to control (reference value: 1.11 %); format: functional
RS4-11 [24] = assay: Induction of apoptosis in human RS4-11 cells assessed as increase in cleaved caspase 3 expression incubated for 48 hrs by western blot analysis; format: functional, cell-based
[25] = molecular target: T1, Induced myeloid leukemia cell differentiation protein Mcl-1; assay: Binding affinity to full length human MCL1 expressed in Escherichia coli BL21 (DE3) assessed as inhibition constant preincubated for 30 mins followed by 5-FAM-QEDIIIINIARHLAQVGDSMD-RSIPPG tracer addition and measured after 20 mins by fluorescence polarization assay
MCF7 = assay: Inhibition of Bcl-2/Bim interaction in human MCF7 cells assessed as disruption of Bcl-2/Bim complex at 10 uM measured after 24 hrs by co-immunoprecipitation based western blot analysis relative to control; format: cell-based
RS4-11 [26] = assay: Induction of apoptosis in human RS4-11 cells assessed as increase in cleaved PARP expression incubated for 48 hrs by western blot analysis; format: functional, cell-based
[27] = molecular target: T1, Induced myeloid leukemia cell differentiation protein Mcl-1; assay: Binding affinity to 15N-labeled human MCL1 (172 to 327 residues) expressed in Escherichia coli BL21 (DE3) assessed as chemical shift at M250 residue at 0.3 mM incubated for 1 hr by 15N HSQC NMR spectroscopy analysis
[28] = molecular target: T1, Induced myeloid leukemia cell differentiation protein Mcl-1; assay: Binding affinity to 15N-labeled human MCL1 (172 to 327 residues) expressed in Escherichia coli BL21 (DE3) assessed as chemical shift at F228 residue at 0.3 mM incubated for 1 hr by 15N HSQC NMR spectroscopy analysis
[29] = molecular target: T1, Induced myeloid leukemia cell differentiation protein Mcl-1; assay: Binding affinity to 15N-labeled human MCL1 (172 to 327 residues) expressed in Escherichia coli BL21 (DE3) assessed as chemical shift at M231 residue at 0.3 mM incubated for 1 hr by 15N HSQC NMR spectroscopy analysis
[30] = molecular target: T1, Induced myeloid leukemia cell differentiation protein Mcl-1; assay: Binding affinity to 15N-labeled human MCL1 (172 to 327 residues) expressed in Escherichia coli BL21 (DE3) assessed as chemical shift at H224 residue at 0.3 mM incubated for 1 hr by 15N HSQC NMR spectroscopy analysis
[31] = molecular target: T1, Induced myeloid leukemia cell differentiation protein Mcl-1; assay: Binding affinity to 15N-labeled human MCL1 (172 to 327 residues) expressed in Escherichia coli BL21 (DE3) assessed as chemical shift at R263 residue at 0.3 mM incubated for 1 hr by 15N HSQC NMR spectroscopy analysis
[32] = molecular target: T1, Induced myeloid leukemia cell differentiation protein Mcl-1; assay: Binding affinity to 15N-labeled human MCL1 (172 to 327 residues) expressed in Escherichia coli BL21 (DE3) assessed as chemical shift at L235 residue at 0.3 mM incubated for 1 hr by 15N HSQC NMR spectroscopy analysis

O=C(Nc1cc(C(F)(F)F)cc(C(F)(F)F)c1)N1CCN(S(=O)(=O)c2sccc2-c2ccccc2Oc2ccc(O)c(O)c2)CC1
viability at 20 µM (RS4-11 [1]): 10%
viability at 20 µM (HeLa [2]): 20%
inhibition [3]: 47%
inhibition [4]: 7%
viability at 20 µM (HL-60 [5]): 15%
viability at 48 h, 20 µM [6]: 29%
inhibition (Bcl-2-like protein 1 [7]): -8%

COc1ccc(Oc2cc(C)ccc2-c2ccsc2S(=O)(=O)NCCNC(=O)Nc2cc(C(F)(F)F)cc(C(F)(F)F)c2)cc1OC
Activity (RS4-11 [8]): Dose-Dependent Effect
IC50 (HEK-293T): 9 µM
inhibition [9]: 30%
Activity (RS4-11 [10]): 75%
IC50 (RS4-11 [11]): 5.6 µM
Activity (RS4-11 [12]): Dose-Dependent Effect
Activity (RS4-11 [13]): 4.15%
IC50 (HeLa [14]): 10.2 µM
Activity (RS4-11 [15]): >60%
Activity [16]: Non-Toxic
viability at 20 µM (RS4-11 [17]): 1.39%
Activity (Bcl-2-like protein 1 [18]): inactive
Activity (RS4-11 [19]): 94.21%
Activity [20]: inactive
Activity (RS4-11 [21]): >60%
IC50 (HL-60 [22]): 5.3 µM
Activity (RS4-11 [23]): 0.24%
Activity (RS4-11 [24]): Dose-Dependent Effect
Ki [25]: 4.9 µM
inhibition (MCF7): inactive
Activity (RS4-11 [26]): Dose-Dependent Effect

Cc1ccc(-c2ccsc2S(=O)(=O)NCCNC(=O)Nc2cc(C(F)(F)F)cc(C(F)(F)F)c2)c(Oc2ccc(O)c(O)c2)c1
IC50 (HEK-293T): > 20 µM
inhibition [9]: 70%
IC50 (RS4-11 [11]): 5.6 µM
Activity (RS4-11 [13]): 12.98%
Activity [27]: Active
IC50 (HeLa [14]): 9.7 µM
Activity [28]: Active
Activity [29]: Active
Activity [30]: Active
viability at 20 µM (RS4-11 [17]): 8.79%
Activity (Bcl-2-like protein 1 [18]): inactive
Activity [31]: Active
Activity (RS4-11 [19]): 75.04%
Activity [20]: inactive
IC50 (HL-60 [22]): 3.7 µM
Activity (RS4-11 [23]): 3.19%
Activity [32]: Active
inhibition (MCF7): inactive

COc1ccc(Oc2ccccc2-c2ccsc2S(=O)(=O)NCCNC(=S)Nc2cc(C(F)(F)F)cc(C(F)(F)F)c2)cc1OC
IC50 (HEK-293T): 6.8 µM
IC50 (RS4-11 [11]): 3.3 µM
Activity (RS4-11 [12]): Dose-Dependent Effect
Activity (RS4-11 [13]): 3.1%
IC50 (HeLa [14]): 6.4 µM
viability at 20 µM (RS4-11 [17]): 2.6%
Activity (Bcl-2-like protein 1 [18]): inactive
Activity (RS4-11 [19]): 93.97%
Activity [20]: inactive
IC50 (HL-60 [22]): 2.8 µM
Activity (RS4-11 [23]): 0.26%
Activity (RS4-11 [24]): Dose-Dependent Effect
inhibition (MCF7): 20%
Activity (RS4-11 [26]): Dose-Dependent Effect

COc1ccc(Oc2ccccc2-c2ccsc2S(=O)(=O)N2CCN(C(=S)Nc3cc(C(F)(F)F)cc(C(F)(F)F)c3)CC2)cc1OC
IC50 (RS4-11 [11]): > 50 µM
IC50 (HeLa [14]): > 50 µM
inhibition [3]: 66%
inhibition [4]: 25%
viability at 20 µM (HL-60 [5]): 38%
viability at 48 h, 20 µM [6]: 42%
inhibition (Bcl-2-like protein 1 [7]): 29%
